Experimental data reported in the NIST ThermoML archive (doi:10.1016/j.jct.2012.09.019).
Numbers after ± are expanded uncertainties.

Experiments:
[1] = Crystal
[2] = refractive index (Na D-line) (dimensionless); conditions: 293.15 K; 101.33 kPa; Liquid; digital refractometer

Compound	Normal melting temperature ([1]; Heating/Cooling curves) [°C]	refractive index [2]	Normal melting temperature ([1]; heating/cooling curves) [°C]
CCCC(=O)O [butanoic acid]	-5.2 ± 2	1.39808 ± 0.0014	–
C1CCCCC1 [cyclohexane]	6.7 ± 2	1.42631 ± 0.0014	–
CCCCCCC(=O)O [heptanoic acid]	-7.5 ± 2	1.4229 ± 0.0014	–
CCCCCCCCCCCCCCCC [hexadecane]	18.1 ± 2	1.43461 ± 0.0014	18.0 ± 2
CCCCCC(=O)O [hexanoic acid]	-2.4 ± 2	1.41692 ± 0.0015	–
CCCCC(=O)O [pentanoic acid]	-34.4 ± 2	1.40857 ± 0.0015	–
CCC(=O)O [propanoic acid]	-20.8 ± 2	1.38682 ± 0.0014	–
